Like-named read-outs stand apart in the source and are kept apart here.
Legend:
[1] = system: patients with heart failure; type: in vivo, human patients; parameters: key to Severity After, Score: summed symptom/sign points; higher = worse heart failure; details: for Severity After, Score / Severity After, NYHA: 2 g twice daily, granules
Description: Twenty-four patients with heart failure were administered every day, two doses containing 2 g each of taurine as granules, and then monitored. The underlying cause of heart failure and the combined therapeutic agents (+: combined, -: not combined) for each patient are shown in Table 2. The therapeutic agents combined with taurine were standard agents which have long been used. Most of the patients had not been improved or have been even worsened under the therapeutic agents in Table 2, prior to the new therapeutic modality of this invention being used. The severity of heart failure was expressed by NYHA Function Class (I to IV, mild to severe according to New York Heart Association) and a score based on observation of clinical symptoms and signs as shown in Table 3. The presence of a symptom or sign was given the point value indicated in the right column and the values for each of the symptoms and signs were summed up for the score. An increase in the score corresponds to a worsening in the patient's heart condition. […]

[2] = Acute toxicity in Wistar male mice; type: in vivo
Description: Each of 10 Wistar male mice, weighing 16-18 g, was administered with 7 g/kg of taurine (as an aqueous solution of 100 ml/kg).

guinea pigs = details: Dietrich & Diacono 1971; cited from earlier work
[3] = 7 g/kg as aqueous solution 100 ml/kg, 7 days observation, route not given

For `NCCS(=O)(=O)O` [taurine, 2-aminoethanesulfonic acid], the adverse reaction ([1]; human, in vivo) was “without any adverse reaction”, the “Severity After, Score” value ([1]; patient 1, week 20, before 7.5, with digitalis) was 2 and the “Severity After, NYHA” value ([1]; patient 1, week 20, before II, with digitalis) was “I”. The “Severity After, Score” value ([1]; patient 2, week 4, before 6.5, with digitalis, diuretics) was 6.5, the “Severity After, Score” value ([1]; patient 3, week 8, before 13, with digitalis, diuretics) was 5 and the “Severity After, Score” value ([1]; patient 4, week 32, before 12, with digitalis, diuretics, vasodilators) was 2.5. The “Severity After, NYHA” value ([1]; patient 4, week 32, before III, with digitalis, diuretics, vasodilators) was “I”, the “Severity After, Score” value ([1]; patient 5, week 8, before 10, with digitalis, diuretics) was 2.5 and the “Severity After, Score” value ([1]; patient 6, week 8, before 5, no combined agent) was 2.5. For the same compound, the “Severity After, Score” value ([1]; patient 7, week 8, before 6, with digitalis, diuretics) was 3, the “Severity After, Score” value ([1]; patient 8, week 4, before 6, with digitalis, diuretics) was 5 and the “Severity After, Score” value ([1]; patient 9, week 4, before 4, no combined agent) was 3. For the same compound, the “Severity After, Score” value ([1]; patient 10, week 4, before 9.5, with diuretics, vasodilators) was 5, the “Severity After, Score” value ([1]; patient 11, week 6, before 9.5, with diuretics, vasodilators) was 6 and the “Severity After, Score” value ([1]; patient 12, week 2, before 3.5, no combined agent) was 3.5. The “Severity After, Score” value ([1]; patient 13, week 2, before 8.5, with diuretics) was 7.5, the “Severity After, Score” value ([1]; patient 14, week 2, before 3.5, with diuretics) was 3 and the “Severity After, Score” value ([1]; patient 15, week 4, before 4.5, with diuretics) was 1. The “Severity After, Score” value ([1]; patient 16, week 4, before 5, with digitalis, diuretics, vasodilators) was 0.5, the “Severity After, Score” value ([1]; patient 17, week 4, before 9, with digitalis, diuretics) was 1 and the “Severity After, Score” value ([1]; patient 18, week 4, before 13, with digitalis, diuretics) was 9. The “Severity After, Score” value ([1]; patient 19, week 4, before 5.5, with digitalis, diuretics) was 4.5, the “Severity After, Score” value ([1]; patient 20, week 2, before 5, with diuretics) was 3 and the “Severity After, Score” value ([1]; patient 21, week 4, before 9.5, combined agent ambiguous (none / diuretics)) was 4. The “Severity After, Score” value ([1]; patient 22, week 4, before 4.5, with diuretics) was 3, the “Severity After, Score” value ([1]; patient 23, week 4, before 5.5, no combined agent) was 5.5 and the “Severity After, Score” value ([1]; patient 24, week 4, before 9, with digitalis, diuretics) was 4. For the same compound, the “improvement with combined use of taurine” value ([1]; patients not controllable or worsened under prolonged conventional agents) was “unexpectedly improved”, the “subjective symptoms and objective signs of heart failure” value ([1]; patients with heart failure, general statement) was “effectively ameliorates the subjective symptoms and objective signs of heart failure” and the behavioral changes [2, 3] was “nor behavioral changes”. For the same compound, the death [2, 3] was “neither death”, the “death and behavioral changes” value ([2]; intravenous, same results = neither death nor behavioral changes) was “the same results were obtained” and the positive inotropic activity (guinea pigs) was “positive inotropic activity”.

Source: patent US4565830A, “Method of ameliorating the subjective symptoms and objective signs in congestive heart failure” (priority 1981, dated 1986)
